In patent US9693556B2, “Herbicidal pyridazinone derivatives” (SYNGENTA LIMITED, priority 2011, dated 2017):

What was measured:
Type in all cases: in vivo
[1] = system: Alopecurus myosuroides (ALOMY); test: Pre-emergence herbicidal glasshouse test on Alopecurus myosuroides; details: for PRE Application ALOMY herbicidal damage (five point scale): pre-emergence, 1000 g/h, evaluated after 13 days
How it was run: (§1)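 Herbicidal damage was rated 13 days after treatment on a five-point scale, where 5 denotes 80-100% and 1 denotes 0-19% damage. Spraying at 1000 g/h followed sowing by one day (pre-emergence) or eight days (post-emergence).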

[2] = system: Echinochloa crus-galli (ECHCG); test: Pre-emergence herbicidal glasshouse test on Echinochloa crus-galli; details: for PRE Application ECHCG herbicidal damage (five point scale): pre-emergence, 1000 g/h, evaluated after 13 days
How it was run: as §1

[3] = system: Echinochloa crus-galli (ECHCG); test: Post-emergence herbicidal glasshouse test on Echinochloa crus-galli; details: for POST Application ECHCG herbicidal damage (five point scale): post-emergence, 1000 g/h, evaluated after 13 days
How it was run: as §1

Setaria faberi (SETFA) [4] = test: Pre-emergence herbicidal glasshouse test on Setaria faberi; details: for PRE Application SETFA herbicidal damage (five point scale): pre-emergence, 1000 g/h, evaluated after 13 days
How it was run: as §1

[5] = system: Ipomoea hederacea (IPOHE); test: Post-emergence herbicidal glasshouse test on Ipomoea hederacea; details: for POST Application IPOHE herbicidal damage (five point scale): post-emergence, 1000 g/h, evaluated after 13 days
How it was run: as §1

[6] = system: Ipomoea hederacea (IPOHE); test: Pre-emergence herbicidal glasshouse test on Ipomoea hederacea; details: for PRE Application IPOHE herbicidal damage (five point scale): pre-emergence, 1000 g/h, evaluated after 13 days
How it was run: as §1

[7] = system: Amaranthus retoflexus (AMARE); test: Post-emergence herbicidal glasshouse test on Amaranthus retoflexus; details: for POST Application AMARE herbicidal damage (five point scale): post-emergence, 1000 g/h, evaluated after 13 days
How it was run: as §1

Setaria faberi (SETFA) [8] = test: Post-emergence herbicidal glasshouse test on Setaria faberi; details: for POST Application SETFA herbicidal damage (five point scale): post-emergence, 1000 g/h, evaluated after 13 days
How it was run: as §1

[9] = system: Amaranthus retoflexus (AMARE); test: Pre-emergence herbicidal glasshouse test on Amaranthus retoflexus; details: for PRE Application AMARE herbicidal damage (five point scale): pre-emergence, 1000 g/h, evaluated after 13 days
How it was run: as §1

Solanum nigrum (SOLNI) [10] = test: Pre-emergence herbicidal glasshouse test on Solanum nigrum; details: for PRE Application SOLNI herbicidal damage (five point scale): pre-emergence, 1000 g/h, evaluated after 13 days
How it was run: as §1

[11] = system: Alopecurus myosuroides (ALOMY); test: Post-emergence herbicidal glasshouse test on Alopecurus myosuroides; details: for POST Application ALOMY herbicidal damage (five point scale): post-emergence, 1000 g/h, evaluated after 13 days
How it was run: as §1

Solanum nigrum (SOLNI) [12] = test: Post-emergence herbicidal glasshouse test on Solanum nigrum; details: for POST Application SOLNI herbicidal damage (five point scale): post-emergence, 1000 g/h, evaluated after 13 days
How it was run: as §1

Structure (SMILES) | PRE Application ALOMY herbicidal damage (five point scale) [1] | PRE Application ECHCG herbicidal damage (five point scale) [2] | POST Application ECHCG herbicidal damage (five point scale) [3] | PRE Application SETFA herbicidal damage (five point scale) (Setaria faberi (SETFA) [4]) | POST Application IPOHE herbicidal damage (five point scale) [5] | PRE Application IPOHE herbicidal damage (five point scale) [6] | POST Application AMARE herbicidal damage (five point scale) [7] | POST Application SETFA herbicidal damage (five point scale) (Setaria faberi (SETFA) [8]) | PRE Application AMARE herbicidal damage (five point scale) [9] | PRE Application SOLNI herbicidal damage (five point scale) (Solanum nigrum (SOLNI) [10]) | POST Application ALOMY herbicidal damage (five point scale) [11] | POST Application SOLNI herbicidal damage (five point scale) (Solanum nigrum (SOLNI) [12]) | other results
CCS(=O)(=O)c1nn(C)c(=O)c(O)c1-c1ccc(S(C)(=O)=O)c(C2=NOCC2)c1C [Compound 2.021] | 1 (1=0-19% damage) | 1 (1=0-19% damage) | 5 (5=80-100% damage) | 1 (1=0-19% damage) | 5 (5=80-100% damage) | 1 (1=0-19% damage) | 5 (5=80-100% damage) | 2 (2=20-39% damage) | 5 (5=80-100% damage) | 1 (1=0-19% damage) | 1 (1=0-19% damage) | 5 (5=80-100% damage) | –
CCCCS(=O)(=O)c1ccccc1-c1cnn(C)c(=O)c1O [Compound 1.051] | 2 (2=20-39% damage) | 4 (4=60-79% damage) | 2 (2=20-39% damage) | 1 (1=0-19% damage) | 4 (4=60-79% damage) | 1 (1=0-19% damage) | 5 (5=80-100% damage) | 2 (2=20-39% damage) | 5 (5=80-100% damage) | 1 (1=0-19% damage) | 1 (1=0-19% damage) | 5 (5=80-100% damage) | –
CCCn1c(-c2cccc(Cl)c2)ncc(-c2cnn(C)c(=O)c2O)c1=O [Compound 10.002] | – | – | – | – | – | – | – | – | – | – | – | – | PRE Application ALOMY ([1]; pre-emergence application, Alopecurus myosuroides, damage score 1-5): 1 (1=0-19% damage); PRE Application ECHCG ([2]; pre-emergence application, Echinochloa crus-galli, damage score 1-5): 1 (1=0-19% damage); POST Application ECHCG ([3]; post-emergence application, Echinochloa crus-galli, damage score 1-5): 2 (2=20-39% damage); PRE Application SETFA (Setaria faberi (SETFA) [4]; pre-emergence application, Setaria faberi, damage score 1-5): 1 (1=0-19% damage); POST Application IPOHE ([5]; post-emergence application, Ipomoea hederacea, damage score 1-5): 4 (4=60-79% damage); PRE Application IPOHE ([6]; pre-emergence application, Ipomoea hederacea, damage score 1-5): 1 (1=0-19% damage); POST Application AMARE ([7]; post-emergence application, Amaranthus retoflexus, damage score 1-5): 5 (5=80-100% damage); POST Application SETFA (Setaria faberi (SETFA) [8]; post-emergence application, Setaria faberi, damage score 1-5): 1 (1=0-19% damage); PRE Application AMARE ([9]; pre-emergence application, Amaranthus retoflexus, damage score 1-5): 4 (4=60-79% damage); PRE Application SOLNI (Solanum nigrum (SOLNI) [10]; pre-emergence application, Solanum nigrum, damage score 1-5): 1 (1=0-19% damage); POST Application ALOMY ([11]; post-emergence application, Alopecurus myosuroides, damage score 1-5): 1 (1=0-19% damage); POST Application SOLNI (Solanum nigrum (SOLNI) [12]; post-emergence application, Solanum nigrum, damage score 1-5): 5 (5=80-100% damage)
Cn1ncc(-c2c(Cl)cccc2Cl)c(O)c1=O [Compound 1.118] | 1 (1=0-19% damage) | 1 (1=0-19% damage) | 2 (2=20-39% damage) | 1 (1=0-19% damage) | 2 (2=20-39% damage) | 1 (1=0-19% damage) | 4 (4=60-79% damage) | 1 (1=0-19% damage) | 1 (1=0-19% damage) | 1 (1=0-19% damage) | 1 (1=0-19% damage) | 3 (3=40-59% damage) | –
CC(C)N(C)S(=O)(=O)c1ccc(-c2cnn(C)c(=O)c2O)c(S(C)(=O)=O)c1 [Compound 2.038] | 5 (5=80-100% damage) | 5 (5=80-100% damage) | 5 (5=80-100% damage) | 4 (4=60-79% damage) | 4 (4=60-79% damage) | 4 (4=60-79% damage) | 5 (5=80-100% damage) | 5 (5=80-100% damage) | 5 (5=80-100% damage) | 5 (5=80-100% damage) | 4 (4=60-79% damage) | 5 (5=80-100% damage) | –
